This data set is described as follows: Solubility comparison: recovery of RTX by HPLC after ambient and cold (5° C.) storage in various solutions. Type of data set: physicochemical. The note with it: unmodified aqueous solution. How it is done: Independently of the formulations described in Example 1, a group of 12 surfactants was tested to compare the recovery of RTX based on HPLC analysis of samples following ambient and cold (5° C.) storage.

Take `C=C(C)[C@]12C[C@@H](C)[C@@]34O[C@](Cc5ccccc5)(O[C@@H]1[C@@H]3C=C(COC(=O)Cc1ccc(O)c(OC)c1)C[C@]1(O)C(=O)C(C)=C[C@@H]41)O2` [RTX, resiniferatoxin]: the “solubility in water (in words)” value was “insolubility in water”.

Source of the values: patent publication US20250000842A1, “Formulation of Resiniferatoxin” (Sorrento Therapeutics, Inc., priority 2017, published 2025).
